From PubChem BioAssay AID2060342 (Molecular Pharmacology Branch, DTP, NCI, 2025)
Values joined by “and” are separate entries in the source; they are usually repeats but may differ in a detail not shown here. Equal entries are not always repeated.

Test system: 171881-019-R-J1-PDC multicell spheroid viability
Test: Anticancer human tumor 171881-019-R-J1-PDC patient-derived invasive breast carcinoma cell line growth inhibition [IpAb]
Settings: for viability, T/C: stronger effect = lower value
Text: Combinatorial screen of targeted agents with ipatasertib and abemaciclib in multi-cell type tumor spheroids
A high-throughput screen of multi-cell type tumor spheroids was designed to identify active combinations of targeted small molecules and ipatasertib or abemaciclib. Complex spheroids include a stromal component modeled by human endothelial cells (HUVEC) and fibroblasts modeled by human mesenchymal stem cells (MSCs). The concentration ranges selected for each drug and investigational agent were based upon clinically achievable concentrations if the clinical Cmax of the agent was known.
Compounds. The drugs and investigational agents: ipatasertib (NSC767898), abemaciclib(NSC768073), selumetinib (NSC741078), trametinib (758246), adavosertib (NSC754352), everolimus (NSC733504), sapanisertib (NSC764658), vemurafenib (NSC761431), venetoclax (NSC766270), copanlisib (NSC809693), apelisib (NSC765974), palbociblib (NSC758247), vemurafenib (NSC761431), dabrafenib (NSC764134), ravoxertinib (NSC781343), BMS-387032 (NSC767048), sotorasib (NSC818433), talazoparib (NSC767125) and afursertib (NSC778305), were obtained from the National Cancer Institute (NCI) Developmental Therapeutics Program Chemical Repository. The FDA-approved anticancer drug set is available from the NCI Developmental Therapeutics Program. […] The stock solutions were prepared in dimethyl sulfoxide (DMSO, Sigma-Aldrich, St. Louis, MO, cat. D2650) at 800-fold the tested concentration and stored at -70 degrees C prior to their use. All drugs and investigational agents were tested over a range starting from a high concentration at or near the clinical Cmax and decreasing in half-log increments. If the clinical Cmax for an agent had not been determined, the highest concentration tested was 10 microM.
NCI60 Cell Culture. NCI60 cell lines were obtained from the NCI Developmental Therapeutics Program Tumor Repository. For each lot of cells, the Repository performed Applied Biosystems AmpFLSTR Identifiler testing with PCR amplification to confirm consistency with the published Identifier STR profile for each cell line. Cells were kept in continuous culture for no more than 20 passages. The optimal seeding densities for each of the cell lines at each time point assessed were determined prior to performing the concentration response studies. Briefly, the NCI60 human tumor lines were grown as monolayers in RPMI 1640 medium supplemented with 10% FBS and 2 mmol/L L-glutamine.
An additional 9 lines were from the NCI60 cell line panel including MDA-MB-231 breast carcinoma, MDA-MB-468 breast carcinoma, MCF7 breast carcinoma, Hs578T breast carcinoma, MALME-3M melanoma, SK-MEL-2 melanoma, SK-OV-3 ovarian carcinoma, DU-145 prostate carcinoma, PC-3 prostate carcinoma, all cell lines along with major genetic alterations are listed on Table 2. Pooled donor human umbilical vein endothelial cells (HUVEC, Lonza, cat. CC-2519) and human mesenchymal stem cells (hMSC, Lonza, cat. PT-2501) were purchased from Lonza (Walkersville, MD).
PDMR cell lines were grown in complete medium (DC medium): Dulbecco's modified Eagle's medium (DMEM)/F12 supplemented with 5% fetal bovine serum (FBS), 2 mM L-glutamine, 100 U/mL penicillin and 100 µg/ml streptomycin, 0.4 µg/ml hydrocortisone, 10 ng/ml epidermal growth factor (EGF) recombinant human protein, 24 µg/mL adenine, and 0.1 mg/mL primocin. During culture from frozen stock vials, PDMR cells were cultured in the same medium containing 10 µM Y-27632 (see Table 3). The PDCs were cultured in complete DMEM/F12 media without 10 microM Y-27632 dihydrochloride for at least two passages prior to the screen. The pooled donor HUVEC and hMSC were cultured in endothelial cell growth medium 2 (PromoCell, Heidelberg, Germany, cat. C-22011) and mesenchymal stem cell growth medium 2 (PromoCell, cat. C-28009), respectively. For all experiments, HUVEC and hMSC were used at passages </=5.
[…]

[1] = curve of first compound, second compound 0.1 µM
[2] = curve of first compound, second compound 0.316 µM
[3] = curve of first compound, second compound 1 µM
[4] = curve of first compound, second compound 3.16 µM
[5] = curve of first compound, second compound 10 µM
[6] = second compound 0.1 µM, first compound 0.0316 µM
[7] = second compound 0.1 µM, first compound 0.1 µM
[8] = second compound 0.1 µM, first compound 0.316 µM
[9] = second compound 0.1 µM, first compound 1 µM
[10] = second compound 0.1 µM, first compound 3.16 µM
[11] = second compound 0.1 µM, first compound 10 µM
[12] = second compound 0.316 µM, first compound 0.0316 µM
[13] = second compound 0.316 µM, first compound 0.1 µM
[14] = second compound 0.316 µM, first compound 0.316 µM
[15] = second compound 0.316 µM, first compound 1 µM
[16] = second compound 0.316 µM, first compound 3.16 µM
[17] = second compound 0.316 µM, first compound 10 µM
[18] = second compound 1 µM, first compound 0.0316 µM
[19] = second compound 1 µM, first compound 0.1 µM
[20] = second compound 1 µM, first compound 0.316 µM
[21] = second compound 1 µM, first compound 1 µM
[22] = second compound 1 µM, first compound 3.16 µM
[23] = second compound 1 µM, first compound 10 µM
[24] = second compound 3.16 µM, first compound 0.0316 µM
[25] = second compound 3.16 µM, first compound 0.1 µM
[26] = second compound 3.16 µM, first compound 0.316 µM
[27] = second compound 3.16 µM, first compound 1 µM
[28] = second compound 3.16 µM, first compound 3.16 µM
[29] = second compound 3.16 µM, first compound 10 µM
[30] = second compound 10 µM, first compound 0.0316 µM
[31] = second compound 10 µM, first compound 0.1 µM
[32] = second compound 10 µM, first compound 0.316 µM
[33] = second compound 10 µM, first compound 1 µM
[34] = second compound 10 µM, first compound 3.16 µM
[35] = second compound 10 µM, first compound 10 µM
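Also: spheroids exposed to the agents for seven days before readout.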

Compound	IC50 [1] [nM]	IC50 [2] [nM]	IC50 [3] [nM]	viability, T/C [6] [%]	viability, T/C [7] [%]	viability, T/C [8] [%]	viability, T/C [9] [%]	viability, T/C [10] [%]	viability, T/C [11] [%]	viability, T/C [12] [%]	viability, T/C [13] [%]	viability, T/C [14] [%]	viability, T/C [15] [%]	viability, T/C [16] [%]	viability, T/C [17] [%]	viability, T/C [18] [%]	viability, T/C [19] [%]	viability, T/C [20] [%]	viability, T/C [21] [%]	viability, T/C [22] [%]	other results
CC1(C)CCC(CN2CCN(c3ccc(C(=O)NS(=O)(=O)c4ccc(NCC5CCOCC5)c([N+](=O)[O-])c4)c(Oc4cnc5[nH]ccc5c4)c3)CC2)=C(c2ccc(Cl)cc2)C1 + CC(C)NCC(C(=O)N1CCN(c2ncnc3c2C(C)CC3O)CC1)c1ccc(Cl)cc1	5670	2840	< 31.6	136	114	120	107	84.3	18.7	103	96.8	83.1	71.3	48.7	14.8	37.2	31.9	34.8	32.3	30.3	IC50 [4]: < 31.6 nM; IC50 [5]: < 31.6 nM; viability, T/C [23]: 12.3%; viability, T/C [24]: 10.9%; viability, T/C [25]: 11.4%; viability, T/C [26]: 11.3%; viability, T/C [27]: 11.5%; viability, T/C [28]: 12.6%; viability, T/C [29]: 5.33%; viability, T/C [30]: 8.52%; viability, T/C [31]: 5.8%; viability, T/C [32]: 5.75%; viability, T/C [33]: 6.5%; viability, T/C [34]: 5.63%; viability, T/C [35]: 2.85%
CC(=O)c1c(C)c2cnc(Nc3ccc(N4CCNCC4)cn3)nc2n(C2CCCC2)c1=O	–	–	–	–	–	–	–	–	–	–	–	–	–	–	–	–	–	–	–	–	viability, T/C (compound 0.000949 µM): 103% and 97.8%; viability, T/C (compound 0.003 µM): 92.6% and 92.2%; viability, T/C (compound 0.00949 µM): 102% and 103%; viability, T/C (compound 0.03 µM): 99.4% and 94%; viability, T/C (compound 0.0949 µM): 105% and 96.1%; viability, T/C (compound 0.3 µM): 115% and 105%; IC50 (curve of compound): > 300 nM
Cc1nc(NC(=O)N2CCCC2C(N)=O)sc1-c1ccnc(C(C)(C)C(F)(F)F)c1 (configuration not stated) + CC(C)NCC(C(=O)N1CCN(c2ncnc3c2C(C)CC3O)CC1)c1ccc(Cl)cc1	651	294	< 31.6	125	108	68.4	38.1	15.5	1.41	71.5	58.9	52.8	18.8	10.7	1.29	24.8	24.1	21.3	13.5	4.39	IC50 [4]: < 31.6 nM; IC50 [5]: < 31.6 nM; viability, T/C [23]: 0.88%; viability, T/C [24]: 10.7%; viability, T/C [25]: 7.22%; viability, T/C [26]: 7.33%; viability, T/C [27]: 5.54%; viability, T/C [28]: 3.24%; viability, T/C [29]: 0.74%; viability, T/C [30]: 5.48%; viability, T/C [31]: 4.17%; viability, T/C [32]: 4.3%; viability, T/C [33]: 2.72%; viability, T/C [34]: 1.77%; viability, T/C [35]: 0.6%
Cn1ncc(Cl)c1-c1cc(C(=O)NC(CN)Cc2cccc(F)c2)sc1Cl (configuration not stated) + CCN1CCN(Cc2ccc(Nc3ncc(F)c(-c4cc(F)c5nc(C)n(C(C)C)c5c4)n3)nc2)CC1	167	207	345	103	66.2	28	17.3	3.84	0.58	107	73.2	34	19.4	4.04	0.34	122	87.9	50.1	27.3	8.61	IC50 (curve of first compound, second compound 0.01 µM): 183 nM; IC50 (curve of first compound, second compound 0.0316 µM): 176 nM; viability, T/C (second compound 0.01 µM, first compound 0.0316 µM): 116%; viability, T/C (second compound 0.01 µM, first compound 0.1 µM): 69.1%; viability, T/C (second compound 0.01 µM, first compound 0.316 µM): 31.4%; viability, T/C (second compound 0.01 µM, first compound 1 µM): 16.8%; viability, T/C (second compound 0.01 µM, first compound 3.16 µM): 3.11%; viability, T/C (second compound 0.01 µM, first compound 10 µM): 0.48%; viability, T/C (second compound 0.0316 µM, first compound 0.0316 µM): 116%; viability, T/C (second compound 0.0316 µM, first compound 0.1 µM): 67.4%; viability, T/C (second compound 0.0316 µM, first compound 0.316 µM): 31.1%; viability, T/C (second compound 0.0316 µM, first compound 1 µM): 15.9%; viability, T/C (second compound 0.0316 µM, first compound 3.16 µM): 4.15%; viability, T/C (second compound 0.0316 µM, first compound 10 µM): 0.13%; viability, T/C [23]: 0.61%
